Values joined by “and” are separate entries in the source; they are usually repeats but may differ in a detail not shown here. Equal entries are not always repeated. Where two headings read alike, the source gives them in different places. Each block holds one compound with its values, some of them ahead of it.
Experiments:
Assay type in all cases: biochemical
[1] = target: T1, hepsin (Homo sapiens, UniProt P05981); experiment: Fluorescent kinetic enzyme inhibitor assay of hepsin; details: Fluorogenic Assay, read-out: Hepsin Ki
T1 construct: purchased R&D Systems 4776-SE-010
T1 sequence (P05981 163-417 limits assumed): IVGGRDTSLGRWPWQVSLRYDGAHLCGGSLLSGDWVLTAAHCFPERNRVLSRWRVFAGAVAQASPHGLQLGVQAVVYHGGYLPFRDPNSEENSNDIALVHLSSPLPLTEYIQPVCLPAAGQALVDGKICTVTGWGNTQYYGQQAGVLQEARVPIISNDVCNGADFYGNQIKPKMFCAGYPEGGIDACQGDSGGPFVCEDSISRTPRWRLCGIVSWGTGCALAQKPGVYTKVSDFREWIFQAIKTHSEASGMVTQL
T1 sequence (P05981 45-162 partner limits assumed): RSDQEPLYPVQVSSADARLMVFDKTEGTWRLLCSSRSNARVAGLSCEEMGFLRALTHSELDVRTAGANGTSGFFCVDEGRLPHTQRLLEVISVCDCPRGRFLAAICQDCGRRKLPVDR
Procedure: (§1) Inhibitors (11-pt serial dilutions, 0-20 μM final concentration in reaction) were serially diluted in DMSO (2% DMSO final concentration) and then mixed with either recombinant serine protease domain of HGFA [Z. Han, P. K. Harris, D. E. Jones, R. Chugani, T. Kim, M. Agarwal, W. Shen, S. A. Wildman, J. W. Janetka, Acs Med Chem Lett 2014, 5, 1219-1224], matriptase (Charles Craik, UCSF) or hepsin* (#4776-SE-010, R&D Systems, Minneapolis, Minn.) in black 384 well plates (Corning #3575. Corning, N.Y.). […] The final substrate concentrations for all assays were at the Km for the respective enzymes. Changes in fluorescence (excitation at 380 nm and emission at 460 nm) were measured at room temperature over time in a Biotek Synergy 2 plate reader (Winnoski, Vt.). Using GraphPad Prism version 6.04 software program, (GraphPad Software, San Diego, Calif., www.graphpad.com), a four parameter curve fit was used to determine the inhibitor IC50s from a plot of the mean reaction velocity versus the inhibitor concentration. The IC50 values represent the average of three separate experimental determinations.

[2] = target: T2, HGFA (Homo sapiens, UniProt Q04756); experiment: Fluorescent kinetic enzyme inhibitor assay of HGFA; details: read-out: HGFA Ki
T2 construct: His6 tag (N); seven amino acid spacer and seven amino acid TEV cleavage site (N); Honey Bee melittin signal peptide (N); made in house; host or cells: High 5 insect cells (baculovirus; virus raised in Sf9)
T2 sequence (Q04756 373-655): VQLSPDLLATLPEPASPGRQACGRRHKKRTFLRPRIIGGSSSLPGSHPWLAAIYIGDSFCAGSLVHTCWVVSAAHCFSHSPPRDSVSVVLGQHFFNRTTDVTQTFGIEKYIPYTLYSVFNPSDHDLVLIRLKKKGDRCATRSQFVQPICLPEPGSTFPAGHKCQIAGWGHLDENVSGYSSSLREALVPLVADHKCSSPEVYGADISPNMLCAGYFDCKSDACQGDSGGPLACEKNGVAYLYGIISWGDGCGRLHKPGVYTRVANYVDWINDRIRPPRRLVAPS
Text: Using primers identified as SEQ ID NO 1, SEQ ID NO 2, and standard PCR protocols, the nucleotide sequence encoding amino acids 373-655 of HGFA was synthesized. This PCR product was cloned into the SfoI-HindIII sites of a modified pFastBac HT baculovirus expression vector (Addgene, Cambridge, Mass.). This vector contains a six amino His tag followed by a seven amino spacer and a seven amino acid TEV cleavage site placed immediately downstream of the Honey Bee melittin signal peptide. Using a modified Bac to Bac Expression System (Life Technologies, Carlsbad, Calif.), recombinant HGFA bacmids were obtained by transforming DH10Bac Escherichia coli cells. To obtain HGFA containing baculovirus, purified bacmids were transfected into Sf9 insect cells. After 5 days in culture at 27° C., media was harvested from transfected Sf9 cells. This media was used to prepare baculovirus infected insect cells (BIICs). These BIIICs were used to infect High 5 insect cells. Four days post infection, media was harvested and recombinant protein prepared as follows. Media was chilled to 4° C. and spun at 4000×g for 20 minutes (all subsequent steps were performed at 4° C. unless noted). Clarified media was passed first through a Whatman GF/B 1 um (#1821-047, GE Healthcare Life Sciences, Piscataway, N.J.) and then a 0.22 um PES membrane (#99955, TPP Techno Plastic Products AG, Trasadingen, Switzerland) and then concentrated using a Pall Centramate tangential flow system and Centramate T-series Cassette (#OS010T12, Pall Corporation, Port Washington, N.Y.). Concentrated media was then buffer exchanged in two steps, five volumes of 50 mM Na-phosphate, 500 mM NaCl, pH 6.2, followed by five volumes of 50 mM Na-phosphate, 500 mM NaCl, pH 7.5. The concentrated and buffered exchanged insect cell media was again filtered as above and made 25 mM imidazole (#1202, Sigma-Aldrich, St. Louis, Mo.) and was mixed with nickel agarose beads (#H-321-25, Gold Biotechnology, Inc., St. Louis Mo.). After mixing this slurry for 12 hours, nickel agarose beads were allowed to settle by gravity and then loaded into a column. Beads were washed with buffer (25 mM Na-phosphate, 500 mM NaCl, 25 mM imidazole, pH 8) and the bound protein eluted using (25 mM Na-phosphate, 500 mM NaCl, 250 mM imidazole, pH 8). Using a Amicon Ultra-4 Centrifugal filters (#UFC801008, Merck Millipore, Ltd., Tullagreen, Ireland), peak protein fractions were concentrated and run over a Superdex-200 10/300 GL column (GE Healthcare Life Sciences, Piscataway, N.J.) in 10 mM Tris, 200 mM NaCl, 0.2 mM EDTA, pH 8. HGFA containing fractions were pooled, concentrated, made 50% glycerol, and stored at minus 20° C. Protein was quantitated using a modified Lowry protein assay (#500-0006, Bio-Rad Laboratories, Hercules, Calif.).
as §1

[3] = target: T3, matriptase (Homo sapiens, UniProt Q9Y5Y6); experiment: Fluorescent kinetic enzyme inhibitor assay of matriptase; details: Fluorogenic Assay
T3 construct: Charles Craik, UCSF (obtained from another laboratory)
T3 sequence (Q9Y5Y6 615-855 limits assumed): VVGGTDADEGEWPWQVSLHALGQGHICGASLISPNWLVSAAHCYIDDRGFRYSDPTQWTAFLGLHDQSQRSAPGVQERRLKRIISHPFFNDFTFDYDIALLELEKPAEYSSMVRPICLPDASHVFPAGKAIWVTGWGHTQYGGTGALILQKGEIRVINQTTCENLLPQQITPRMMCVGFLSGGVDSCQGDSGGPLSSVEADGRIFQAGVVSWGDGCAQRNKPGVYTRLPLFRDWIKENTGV
Procedure: as §1

[4] = target: T4, HGFA (Homo sapiens, UniProt Q04756); experiment: P4-P2 substrate specificity using HyCoSuL, HGFA; design: P3 Position % Activity HGFA / P2 Position % Activity HGFA: concentration or dose not given beside the values; P4 Position % Activity HGFA: tested at 100 µM; details: HyCoSuL substrate library; for P2 Position % Activity HGFA: amino acid fixed at P2 position; for P3 Position % Activity HGFA: amino acid fixed at P3 position; for P4 Position % Activity HGFA: amino acid fixed at P4 position
T4 sequence (Q04756 408-655 limits assumed): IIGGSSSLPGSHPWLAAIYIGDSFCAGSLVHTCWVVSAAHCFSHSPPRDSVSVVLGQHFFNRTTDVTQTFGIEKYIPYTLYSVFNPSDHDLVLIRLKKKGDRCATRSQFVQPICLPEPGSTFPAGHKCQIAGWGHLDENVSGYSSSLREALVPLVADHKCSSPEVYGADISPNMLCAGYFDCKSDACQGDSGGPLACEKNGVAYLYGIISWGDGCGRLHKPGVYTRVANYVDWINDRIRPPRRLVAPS
T4 sequence (Q04756 373-407 partner limits assumed): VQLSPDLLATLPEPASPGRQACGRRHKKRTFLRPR
Procedure: (§2) Each of the P4, P3, and P2 sublibraries were screened at the 100 μM concentration with hepsin either HGFA in a 100 μL final volume per well (99 μL of protease in buffer+1 μL of 10 mM substrates mixture). The total time of the assay was 30 minutes, however only linear portions of the progress curve (5-15 minutes) were used for velocity (RFU/s) calculations. Each sublibrary screening was repeated at least 3-times and the average value calculated from each measurement was used to create the substrate specificity matrix—the best recognized amino acid in each position was set to 100%, and other amino acids were adjusted accordingly.
HFGA enzyme was diluted in the assay buffer (0.15 M NaCl, 0.025 M Tris, 0.005 M CaCl2, pH=8.0) to the final concentration of 10-20 nM (depending of sublibrary) and incubated at 25° C. for 30 minutes before added to a substrate.

[5] = target: T1, hepsin; experiment: P4-P2 substrate specificity using HyCoSuL, hepsin; design: concentration or dose not given beside the values; details: HyCoSuL substrate library; for P2 Position % Activity Hepsin: amino acid fixed at P2 position; for P3 Position % Activity Hepsin: amino acid fixed at P3 position; for P4 Position % Activity Hepsin: amino acid fixed at P4 position
Procedure: as §2
Recombinant human hepsin (10 μg in 20 uL, 4776-SE-010, R&D Systems) was added to the 100 μL of activation buffer (0.1 M Tris, 0.15 M NaCl, 0.01 M CaCl2, 0.05% TRITON-X, pH=8.0) and incubated at 37° C. for 24 hours (hepsin concentration in activation buffer 2 μM). Once activated hepsin was diluted in assay buffer (0.05 M Tris, pH=9.0) to the final concentration of 4 nM and incubated at 37° C. for 15 minutes before added to a substrate.

Ki ([1]; Table 9.1): 2.4 µM | Ki ([2]; Table 9.1, Fluorogenic Assay): > 50 µM
Compound: Cc1ccc(S(=O)(=O)N[C@@H](Cc2cccc(C(=N)N)c2)C(=O)N2CCN(C(=O)OCc3ccccc3)CC2)cc1 [Compound 25h, (S)-Benzyl 4-(3-(3-carbamimidoylphenyl)-2-(4-methylphenylsulfonamido)propanoyl)piperazine-1-carboxylate]

Ki ([1]; Table 9.1): 4.9 µM | Ki ([3]; Table 9.1): 12.4 µM
Compound: CC(C)CN1CCN(C(=O)[C@H](Cc2cccc(C(=N)N)c2)NS(=O)(=O)c2ccc3ccccc3c2)CC1 [Compound 30]

Ki ([1]; Table 9.1): 3.28 µM | Ki ([2]; Table 9.1, Fluorogenic Assay): 10.1 µM | Ki ([3]; Table 9.1): 0.3 µM
Compound: N=C(N)c1cccc(C[C@H](NS(=O)(=O)c2ccc3ccccc3c2)C(=O)N2CCC(c3ccccc3)CC2)c1 [Compound 16, (S)-3-(2-(Naphthalene-2-sulfonamido)-3-oxo-3-(4-phenylpiperidin-1-yl)propyl)benzimidamide]

Ki ([1]; Table 9.1): 1.7 µM | Ki ([3]; Table 9.1): 4.4 µM
Compound: N=C(N)c1cccc(C[C@H](NS(=O)(=O)c2ccc3ccccc3c2)C(=O)N2CCN(C(=O)Cc3cccc(O)c3)CC2)c1 [Compound 31]

Ki ([1]; Table 9.1): 39.5 µM | Ki ([3]; Table 9.1): 2.78 µM
Compound: CCOC(=O)N1CCN(C(=O)[C@H](Cc2cccc(C(=N)N)c2)NS(=O)(=O)c2ccc3ccccc3c2)CC1 [FMF-1-275-004]

P2 Position % Activity HGFA [4]: 0.24% | P3 Position % Activity HGFA [4]: 15.95% | P4 Position % Activity HGFA [4]: 10.07% | P2 Position % Activity Hepsin [5]: 0.00% | P3 Position % Activity Hepsin [5]: 22.78% | P4 Position % Activity Hepsin [5]: 30.74%
Compound: β-Ala

Ki ([1]; Table 9.1): > 20 µM | Ki ([3]; Table 9.1): > 20 µM
Compound: CC(C)C(=O)N1CCN(C(=O)[C@H](Cc2cccc(C(=N)N)c2)NS(=O)(=O)c2ccc3ccccc3c2)CC1 [Compound 29]

Further lines, the compound ahead of its results:

Compound: Cc1ccc(S(=O)(=O)N[C@@H](Cc2cccc(C(=N)N)c2)C(=O)N2CCC(c3ccccc3)CC2)cc1 [Compound 25b, (S)-3-(2-(4-Methylphenylsulfonamido)-3-oxo-3-(4-phenylpiperidin-1-yl)propyl)benzimidamide]
Ki ([1]; Table 9.1): 4.8 µM | Ki ([2]; Table 9.1, Fluorogenic Assay): 19.9 µM | Ki ([3]; Table 9.1): 0.57 µM

Compound: N=C(N)NCCC[C@H](NC(=O)[C@H](Cc1ccccc1)NC(=O)[C@H](N)Cc1c[nH]c2ccccc12)C(=O)c1nc2ccc(C(=O)O)cc2s1 [Compound 1-45A1, H-dWFR-kbt-COOH]
Ki ([1]; Table 6.1): 0.00141 µM | Ki ([2]; Table 6.1, Fluorogenic Assay): 0.981 µM

Compound: N=C(N)c1cccc(C[C@H](NS(=O)(=O)c2ccc3ccccc3c2)C(=O)N2CCN(C(=O)Cc3ccc(F)cc3)CC2)c1 [Compound 32]
Ki ([1]; Table 9.1): 1 µM | Ki ([3]; Table 9.1): 2.8 µM

Compound: N=C(N)c1cccc(C[C@H](NS(=O)(=O)c2ccc3ccccc3c2)C(=O)N2CCN(c3ccccc3)CC2)c1 [Compound 25g, (S)-3-(2-(Naphthalene-2-sulfonamido)-3-oxo-3-(4-phenylpiperazin-1-yl)propyl)benzimidamide]
Ki ([1]; Table 9.1): 7 µM | Ki [2]: 18.3 µM | Ki ([3]; Table 9.1): 1.8 µM

Compound: CC(C)c1cc(C(C)C)c(S(=O)(=O)N[C@@H](Cc2cccc(C(=N)N)c2)C(=O)N2CCN(c3ccccc3)CC2)c(C(C)C)c1 [Compound 27, (S)-3-(3-Oxo-3-(4-phenylpiperazin-1-yl)-2-((2,4,6-triisopropylphenyl)sulfonamido)propyl)benzimidamide]
Ki ([1]; Table 9.1): 7.4 µM | Ki [2]: 22.2 µM | Ki ([3]; Table 9.1): 0.76 µM

Compound: N=C(N)NCCC[C@H](NC(=O)[C@H](CCC(N)=O)NC(=O)OCC1c2ccccc2-c2ccccc21)C(=O)c1nc2ccccc2s1 [Compound 7185-6, Fmoc-QR-kbt]
Ki ([3]; Table 6.1): 0.0016 µM

Compound: D-His
P2 Position % Activity HGFA [4]: 0.00% | P3 Position % Activity HGFA [4]: 11.09% | P4 Position % Activity HGFA [4]: 7.79% | P2 Position % Activity Hepsin [5]: 0.00% | P3 Position % Activity Hepsin [5]: 40.09% | P4 Position % Activity Hepsin [5]: 19.33%

Compound: L-Dab
P2 Position % Activity HGFA [4]: 0.50% | P3 Position % Activity HGFA [4]: 29.40% | P4 Position % Activity HGFA [4]: 16.76% | P2 Position % Activity Hepsin [5]: 13.49% | P3 Position % Activity Hepsin [5]: 48.55% | P4 Position % Activity Hepsin [5]: 47.53%

Compound: D-Val
P2 Position % Activity HGFA [4]: 0.00% | P3 Position % Activity HGFA [4]: 5.76% | P4 Position % Activity HGFA [4]: 8.25% | P2 Position % Activity Hepsin [5]: 0.00% | P3 Position % Activity Hepsin [5]: 27.04% | P4 Position % Activity Hepsin [5]: 22.58%

Compound: CC(C)c1cc(C(C)C)c(S(=O)(=O)N[C@@H](Cc2cccc(C(=N)N)c2)C(=O)N2CCN(C(=O)C3CCNCC3)CC2)c(C(C)C)c1 [Compound 26]
Ki ([1]; Table 9.1): 8.14 µM and 8.13 µM
